Laboratory results from patent publication US6673843B2 (Emory University, priority 1999, dated 2004).
“Also recorded” adds a separate entry of the source.

Tests used:
[1] = tested on: bFGF-induced corneal neovascularization; test: Corneal neovascularization, bFGF pellet in mouse cornea; format: in vivo, C57BL6 male mice; conditions: for ANTI-ANGIOGENIC EFFECT Vessel Length / ANTI-ANGIOGENIC EFFECT Sector Size: pellet with 80 ng bFGF and 44 μg compound, mouse cornea; for ANTI-ANGIOGENIC EFFECT Sector Size: footnote: units of 1/12 of a circle (clock hours)
Method: C57BL6 male mice (5-6 weeks old) were anesthetized with methoxyflurane prior to implantation of pellets and with 0.5% proparacaine. A central, intrastromal linear keratotomy was performed with a surgical blade, and a lamellar micropocket was prepared according to the method of Kenyon, et al. (1996). The pellet was advanced to the end of the pocket. Erythromycin ointment was placed on the operated eye to prevent infection. Eyes were examined by slit lamp on days 3-6 after implantation under general anesthesia. Corneal angiogenesis was assayed through two measurements.
Vessel length is the length of the vessel from the corneal limbus as it grows toward the pellet containing bFGF.
Sector size is a measurement of neovascularized area of the cornea. The cornea is viewed as a circle that can be divided into twelve sectors of 30 degrees span each, analogous to the division of a clock face into twelve hours. Thus, neovascularization of a sector corresponding to one fourth of the cornea would be recorded as a sector size measurement of three. This system of measurement, recording sector sizes as “clock hours”, was established by Kenyon et al., Invest. Ophthalmol. 37:1625-1632 (1996).
Pellets were prepared according to a modification of the method of Kenyon, et al. Invest. Opthalmol. Vis. Sci. 37:1625-1632 (1996). […] Once the mixture was dry, the mesh was manually dissociated to yield 225 pellets. […] The approximate pore size was 0.4×0.4 mm. Both sides of the mesh were covered with a thin layer of hydron.
Neovascularization was assessed by slit lamp at 5 days after implantation, and the corneas were photographed.

[2] = tested on: quinone reductase [NAD(P)H:(quinone-acceptor) oxidoreductase, EC1.6.99.2] in murine Hepac1c7 cells; test: Phase II enzyme induction (quinone reductase); format: cell-based; conditions: for PHASE II INDUCTION CD (concentration to double the measured specific activity): quinone reductase, murine Hepac1c7 cells
Source text: Several plant-derived compounds with anticancer and chemopreventive activities also show the ability to induce phase II detoxifying enzymes, including quinone reductase.

[3] = tested on: VEGF mRNA; test: Production of VEGF mRNA in HaCaT keratinocytes (RNAse protection); format: cell-based, human; conditions: TPA 5 ng/ml, three hours, HaCaT cells
Method: HaCaT keratinocytes were grown in (DMEM) (JRH) supplemented with 5% FCS (Hyclone, Logan, UT) in 25 cm^2 flasks. […] TPA was added to a final concentration of 5 ng/ml and cells were incubated for three hours at 37° C. and harvested, and their RNA was extracted with guanidinium thiocyanate/phenol.
A plasmid containing the coding region of human vascular endothelial growth factor (VEGF) 121 was obtained from H. Welch (University of Freiburg, Germany), and used to generate P^32-labeled antisense riboprobe as per manufacturers protocols (Ambion, Austin, Tex.). RNAse protection assays were performed according to the method of Hod, Biotechniques 13:852-853 (1992). Protected fragments were separated on gels of 5% acrylamide, 8 M urea, 1× Tris-borate buffer, and quantified with a phosphorimager (Molecular Dynamics, Sunnyvale, Calif.). An 18S riboprobe was included in each sample to normalize for variations in loading and recovery of RNA.
HaCaT cells are derived from spontaneously transformed human keratinocytes.

[4] = tested on: Bovine capillary endothelial cells; test: Endothelial proliferation assay, primary endothelial cells; format: cell-based; conditions: 72 hours
Method: Bovine capillary endothelial cells were isolated according to the method of Folkman, et al., Proc. Nat. Acad. Sci. U.S.A. 76:5217-5221 (1979), and were plated at a concentration of 10,000 cells/well in gelatinized 24-well dishes. The primary endothelial cells were cultured in Dulbecco's modified Eagle's medium (DMEM) supplemented with 10% bovine serum and grown at 37° C. in 10% CO2. Twenty-four hours after plating, cells were treated with curcumin in the presence or absence of bFGF. After 72 hours of treatment, cells were counted using a Coulter counter. Cell counts for each condition were repeated in triplicate and in the presence or absence of 1 ng/ml bFGF. Endothelial cells were stimulated to proliferate in the presence of 1 ng/ml bFGF.

[5] = tested on: MSI (ATCC CCRL 2279) endothelial cells; test: Endothelial proliferation assay, SV40 large T antigen immortalized endothelial cells; format: cell-based, murine; conditions: 72-hour exposure
Method: Similarly, MSI (ATCC CCRL 2279) endothelial cells, which are a SV40 large T antigen immortalized murine endothelial cell line, were also plated at a concentration of 10,000 cells/well in nongelatinized 24-well dishes.

[6] = tested on: omithine decarboxylase induction and promotion of mouse skin; conditions: oral administration; Huang et al. 1995; cited from earlier work
[7] = tested on: human umbilical vein endothelial cells (HUVEC); conditions: independent of bFGF stimulation; Singh et al. 1996; cited from earlier work
[8] = tested on: induced tumors; conditions: oral administration, skin and colon chemical carcinogens; cited from earlier work
[9] = pellet with 80 ng bFGF plus compound

SMILES | ANTI-ANGIOGENIC EFFECT Vessel Length [1] [mm.] | ANTI-ANGIOGENIC EFFECT Sector Size [1] [clock hours] | PHASE II INDUCTION CD (concentration to double the measured specific activity) [2] [µM] | also measured
COc1cc(CCC(=O)CC(=O)CCc2ccc(O)c(OC)c2)ccc1O [Tetrahydrocurcumin, tetrahydrocurcumin] | 0.74 | 2.43 | >25 | induction of quinone reductase activity ([2]; highest concentration tested, 25 μM): 1.6 fold
COc1cc(/C=C/C(O)=C/C(=O)/C=C/c2ccc(O)cc2)ccc1O [Demethoxycurcumin, demethoxycurcumin] | 0.26 | 0.71 | 9.0 | –
O=C(/C=C/c1ccc(O)cc1)CC(=O)/C=C/c1ccc(O)cc1 [Bisdemethoxycurcumin, bisdemethoxycurcumin] | 0.88 | 1.7 | 11.0 | –
O=C1C(c2ccccc2)=C(c2ccccc2)C(c2ccccc2)=C1c1ccccc1 [TPCPD, tetraphenylcyclopentadienone, reference compound] | 1.16 | 3.72 | 4.8 | bFGF-induced corneal neovascularization (in words) [1, 9]: no anti-angiogenic activity; also recorded: no difference in neovascularization; bFGF-induced corneal neovascularization (in words) ([1]; pellet with 80 ng bFGF plus compound, listed as tetraphenylcyclopentadienone (TPCPD)): no effect
CCCCCCCCCCCCCC(=O)O[C@@H]1[C@@H](C)[C@@]2(O)[C@@H](C=C(CO)C[C@]3(O)C(=O)C(C)=C[C@@H]23)[C@@H]2C(C)(C)[C@]12OC(C)=O [TPA, 12-O-tetradecanoylphorbol-13-acetate, reference compound] | – | – | – | increase in VEGF mRNA [3]: 2.5 fold
COc1cc(/C=C/C(=O)CC(=O)/C=C/c2ccc(O)c(OC)c2)ccc1O [Curcumin] | 0.59 | 1.17 | 7.3 | cell number (proliferation) after treatment ([4]; 10 μM, presence or absence of 1 ng/ml bFGF): steep decrease in cell number; cytotoxicity to endothelial cells ([4]; 0.5 to 10 μM): No evidence of cytotoxicity; growth of endothelial cells immortalized by SV40 large T antigen [5]: able to inhibit the growth; sector size (in words) [1, 9]: significantly reduced; vessel length (in words) [1, 9]: significantly reduced; inhibition of TPA-caused increase in VEGF mRNA ([3]; 10 μM curcumin): not inhibited; also recorded: lack of inhibition; inhibition of phorbol ester-stimulated ornithine decarboxylase induction and promotion of DMBA-initiated mouse skin [6]: able to inhibit; in vitro proliferation of HUVEC [7]: inhibits; incidence and size of induced tumors compared with control mice [8]: decreased incidence and size
